Earlier results in patent US20130040915A1, “PHARMACEUTICAL COMPOSITION” (CAPITAL, BUSINESS Y GESTION DE FINANZAS, S.L., priority 2010, published 2013).

What was measured:
[1] = test system: tumor-induced hypercalcaemia; settings: subcutaneous infusion
[2] = high concentrations, of the order of 4.8 mg/ml
[3] = not given; remark: listed apart in the source
[4] = test system: adipose tissue cell membranes; settings: concentrations of 1%

Compound: O=P(O)(O)C(O)(Cn1ccnc1)P(=O)(O)O [Zoledronic acid]
- chemical stability in autoclave sterilization condition: chemically very stable

Compound: O=P(O)(O)C(Cl)(Cl)P(=O)(O)O [clodronate]
- tolerability ([1]; 1500 mg in 50 to 1000 ml, 2 to 24 hours): well tolerated
- control of tumor-induced hypercalcaemia (lowering the level of calcium) ([1]; 149 patients, 254 infusions): effective

Compound: O=C([O-])CC(O)(CC(=O)[O-])C(=O)[O-].[Na+].[Na+].[Na+] [sodium citrate]
- pain after a subcutaneous injection compared with a solution with histidine [2]: more pain

Compound: C[C@H](CCC(=O)NCCS(=O)(=O)O)[C@H]1CC[C@H]2[C@@H]3[C@H](O)C[C@@H]4C[C@H](O)CC[C@]4(C)[C@H]3C[C@H](O)[C@]12C [sodium taurocholate]
- pKa [3]: 1.4

Compound: sodium deoxycholate
- pKa [3]: 6.58
- solubility ([3]; pH 7.4 of the skin): sparingly soluble
- effect on adipose tissue cell membranes [4]: non-specific rupture of adipose tissue cell membranes
